# Reference: patent publication US9695155B2, “Herbicidal substituted pyrimidinyloxy benzene compounds” (E. I. DU PONT DE NEMOURS AND COMPANY, priority 2013, dated 2017)
# How the values were obtained:
# rice = test: Test C flooded paddy test; format: in vivo, Oryza sativa; settings: Flood, scale 0 to 100 (0 no effect, 100 complete control), 13 to 15 days
# Outline: (§1)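 Pots were flooded to 3 cm above the soil surface at treatment, compound applied directly to the paddy water, and that depth held throughout. Plants were kept in a greenhouse for 13 to 15 days, then visually rated against untreated controls.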
# sedge, umbrella = test: Test C flooded paddy test; format: in vivo, Cyperus difformis; settings: Flood, scale 0 to 100 (0 no effect, 100 complete control), 13 to 15 days
# Outline: as §1
# corn = test: Test E preemergence; format: in vivo, Zea mays; settings: for Corn plant response rating: scale 0 to 100 (0 no effect, 100 complete control)
# Outline: (§2)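 Compound in a non-phytotoxic solvent mixture with surfactant was applied preemergence to seeds in silt loam soil, or postemergence to plants 2 to 18 cm tall grown in peat-based potting medium. Plants were kept in a greenhouse for 14 to 21 days, then rated visually against untreated controls on a 0 (no effect) to 100 (complete control) scale.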
# velvetleaf = test: Test E preemergence; format: in vivo, Abutilon theophrasti; settings: for Velvetleaf plant response rating: scale 0 to 100 (0 no effect, 100 complete control)
# Outline: as §2
# lambsquarters = test: Test E preemergence; format: in vivo, Chenopodium album; settings: for Lambsquarters plant response rating: scale 0 to 100 (0 no effect, 100 complete control)
# Outline: as §2
# palmer pigweed = test: Test E preemergence; format: in vivo, Amaranthus palmeri; settings: for Pigweed, Palmer plant response rating: scale 0 to 100 (0 no effect, 100 complete control)
# Outline: as §2
# waterhemp = test: Test E preemergence; format: in vivo, Amaranthus rudis; settings: for Waterhemp plant response rating: scale 0 to 100 (0 no effect, 100 complete control)
# Outline: as §2
# Brazilian crabgrass = test: Test E preemergence; format: in vivo, Digitaria horizontalis; settings: for Crabgrass, Brazil plant response rating: scale 0 to 100 (0 no effect, 100 complete control)
# Outline: as §2
# johnsongrass = test: Test E preemergence; format: in vivo, Sorghum halepense; settings: for Johnsongrass plant response rating: scale 0 to 100 (0 no effect, 100 complete control)
# Outline: as §2
# arrowleaf sida = test: Test E preemergence; format: in vivo, Sida rhombifolia; settings: preemergence; for Arrowleaf Sida plant response rating: scale 0 to 100 (0 no effect, 100 complete control)
# Outline: as §2
# field bindweed = test: Test E preemergence; format: in vivo, Convolvulus arvensis; settings: for Field Bindweed plant response rating: scale 0 to 100 (0 no effect, 100 complete control)
# Outline: as §2
# yellow nutsedge = test: Test E preemergence; format: in vivo, Cyperus esculentus; settings: for Nutsedge, Yellow plant response rating: scale 0 to 100 (0 no effect, 100 complete control)
# Outline: as §2
# [1] = 125 g ai/ha, scale 0 to 100, 0 no effect, 100 complete control
compound,measurement,setting,value
FC(F)(F)c1cnn(-c2c(Cl)cccc2Oc2ncc(Cl)cn2)c1 [Compound 167],"Plant response rating, Rice",rice; 31 g ai/ha,0
same,"Plant response rating, Rice",rice; 62 g ai/ha,0
same,"Plant response rating, Rice",rice; 125 g ai/ha,0
same,"Plant response rating, Rice",rice; 250 g ai/ha,0
same,"Plant response rating, Sedge, Umbrella","sedge, umbrella; 31 g ai/ha",60
same,"Plant response rating, Sedge, Umbrella","sedge, umbrella; 62 g ai/ha",70
same,"Plant response rating, Sedge, Umbrella","sedge, umbrella; 125 g ai/ha",80
same,"Plant response rating, Sedge, Umbrella","sedge, umbrella; 250 g ai/ha",85
same,Corn plant response rating,corn; 16 g ai/ha,0
same,Corn plant response rating,corn; 31 g ai/ha,0
same,Corn plant response rating,corn; 62 g ai/ha,15
same,"Plant response rating, Corn",corn; [1],25
same,Velvetleaf plant response rating,velvetleaf; 31 g ai/ha,20
same,Velvetleaf plant response rating,velvetleaf; 62 g ai/ha,65
same,"Plant response rating, Velvetleaf",velvetleaf; [1],100
same,Lambsquarters plant response rating,lambsquarters; 31 g ai/ha,98
same,Lambsquarters plant response rating,lambsquarters; 62 g ai/ha,100
same,"Plant response rating, Lambsquarters",lambsquarters; [1],100
same,"Pigweed, Palmer plant response rating",palmer pigweed; 31 g ai/ha,0
same,"Pigweed, Palmer plant response rating",palmer pigweed; 62 g ai/ha,98
same,"Plant response rating, Pigweed, Palmer",palmer pigweed; [1],100
same,Waterhemp plant response rating,waterhemp; 31 g ai/ha,98
same,Waterhemp plant response rating,waterhemp; 62 g ai/ha,98
same,"Plant response rating, Waterhemp",waterhemp; [1],100
same,"Crabgrass, Brazil plant response rating",Brazilian crabgrass; 16 g ai/ha,0
same,"Crabgrass, Brazil plant response rating",Brazilian crabgrass; 31 g ai/ha,20
same,"Crabgrass, Brazil plant response rating",Brazilian crabgrass; 62 g ai/ha,75
same,"Plant response rating, Crabgrass, Brazil",Brazilian crabgrass; [1],100
same,Johnsongrass plant response rating,johnsongrass; 31 g ai/ha,10
same,Johnsongrass plant response rating,johnsongrass; 62 g ai/ha,30
same,"Plant response rating, Johnsongrass",johnsongrass; [1],70
same,Arrowleaf Sida plant response rating,arrowleaf sida; 16 g ai/ha,65
same,Arrowleaf Sida plant response rating,arrowleaf sida; 31 g ai/ha,65
same,Arrowleaf Sida plant response rating,arrowleaf sida; 62 g ai/ha,100
same,"Plant response rating, Arrowleaf Sida",arrowleaf sida; [1],100
same,Field Bindweed plant response rating,field bindweed; 16 g ai/ha,0
same,Field Bindweed plant response rating,field bindweed; 31 g ai/ha,0
same,Field Bindweed plant response rating,field bindweed; 62 g ai/ha,0
same,"Plant response rating, Field Bindweed",field bindweed; [1],10
same,"Nutsedge, Yellow plant response rating",yellow nutsedge; 31 g ai/ha,0
same,"Nutsedge, Yellow plant response rating",yellow nutsedge; 62 g ai/ha,0
same,"Plant response rating, Nutsedge, Yellow",yellow nutsedge; [1],0
